For eight compounds, TGI results are on record in PubChem BioAssay (NCI).

Test systems include 786-0 renal; COLO 205 colon; MALME-3M melanoma; MOLT-4 leukemia; NCI-H522 lung; OVCAR-5 ovarian; OVCAR-8 ovarian; RPMI-8226 leukemia; SF-295 CNS; SK-OV-3 ovarian; SNB-19 CNS; SW-620 colon; UACC-257 melanoma; XF 498 CNS; HOP-92 NSCLC; NCI-H23 lung; BT-549 breast; DU-145 prostate; NCI/ADR-RES ovarian; T-47D breast.
What all share (assay): growth of human tumour cells (NCI), 48 h

Molecules are shown by their SMILES.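 Cultured in 96-well plates, cells were exposed to test compound for 48 hours across five concentrations. At the TGI there is no net growth.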

Take `Oc1cccnc1/C=N/OCc1ccccc1`: the TGI in the assay on 786-0 renal, in the assay with COLO 205 colon, in the assay with MALME-3M melanoma, in the assay on MOLT-4 leukemia, with NCI-H522 lung and with OVCAR-5 ovarian was above 100 µM in each case. Moreover, the TGI with OVCAR-8 ovarian, in the assay on RPMI-8226 leukemia, in the assay with SF-295 CNS, in the assay with SK-OV-3 ovarian, with SNB-19 CNS and with SW-620 colon was above 100 µM in each case. Moreover, the TGI with UACC-257 melanoma and in the assay on XF 498 CNS was above 100 µM in each case.
Turning to `Cc1nnc(N/N=C(/C(=O)C(C#N)c2ccc(Cl)cc2)C(C#N)c2ccc(Cl)cc2)n1N` (configuration not stated), the TGI was 31.5 µM with 786-0 renal; 32.5 µM in the assay with COLO 205 colon; above 100 µM in the assay on HOP-92 NSCLC; 33.6 µM with MALME-3M melanoma; above 100 µM in the assay on MOLT-4 leukemia; 35.3 µM with NCI-H23 lung. The TGI with NCI-H522 lung stood at 32.3 µM; with OVCAR-5 ovarian it was 33.6 µM; with OVCAR-8 ovarian, 41 µM; in the assay on RPMI-8226 leukemia it was 45.6 µM; in the assay with SF-295 CNS it was 30.9 µM; in the assay on SNB-19 CNS it was 27.9 µM. Moreover, the TGI came out at 37.3 µM in the assay with SW-620 colon, 33.1 µM with UACC-257 melanoma and 46.6 µM with XF 498 CNS.
As to `COC(=O)CCC(NC(=S)N/N=C(\C)c1cnccn1)C(=O)OC` (configuration not stated), the TGI in the assay with 786-0 renal is above 100 µM; with COLO 205 colon it was above 100 µM; in the assay with HOP-92 NSCLC, above 100 µM; in the assay with MALME-3M melanoma it was above 100 µM; in the assay on MOLT-4 leukemia, 61 µM; with NCI-H23 lung, above 100 µM. Besides, the TGI with NCI-H522 lung is 84 µM; in the assay with OVCAR-5 ovarian, 79.7 µM; in the assay with OVCAR-8 ovarian, above 100 µM; in the assay with RPMI-8226 leukemia, above 100 µM; with SF-295 CNS it was above 100 µM; with SK-OV-3 ovarian, above 100 µM. The TGI with SNB-19 CNS, in the assay on SW-620 colon, in the assay on UACC-257 melanoma and with XF 498 CNS was above 100 µM each time.
Consider `c1ccc(C2=C(c3ccccc3)Sc3nnc(CCCCCCCCc4nnc5n4NC(c4ccccc4)=C(c4ccccc4)S5)n3N2)cc1`, for which the TGI with 786-0 renal, with BT-549 breast, in the assay with COLO 205 colon, with DU-145 prostate, in the assay on HOP-92 NSCLC and in the assay with MALME-3M melanoma was above 100 µM in each case. For the same compound, the TGI in the assay with MOLT-4 leukemia was 49.9 µM; in the assay with NCI-H23 lung, above 100 µM; with NCI-H522 lung, above 100 µM; with NCI/ADR-RES ovarian, above 100 µM; with OVCAR-5 ovarian, above 100 µM; in the assay with OVCAR-8 ovarian, above 100 µM. Besides, the TGI is above 100 µM with RPMI-8226 leukemia; above 100 µM in the assay with SF-295 CNS; above 100 µM with SK-OV-3 ovarian; above 100 µM with SNB-19 CNS; above 100 µM with SW-620 colon; 79.2 µM with T-47D breast. In the assay with UACC-257 melanoma, this compound yielded a TGI above 100 µM.
On to `O=C(NCCCCCCCN1CCCCCCC1)C(C1CCCCC1)C1CCCCC1`, for which the TGI came out at 12.6 µM with 786-0 renal; 28.7 µM with BT-549 breast; 8.64 µM with COLO 205 colon; 27.4 µM in the assay with DU-145 prostate; 23.7 µM in the assay on HOP-92 NSCLC; 8.53 µM with MALME-3M melanoma. Also, the TGI in the assay on MOLT-4 leukemia amounted to 20.4 µM; in the assay with NCI-H23 lung, 28.5 µM; in the assay on NCI-H522 lung it was 30.9 µM; in the assay on NCI/ADR-RES ovarian, 25.1 µM; in the assay on OVCAR-5 ovarian it was 23.2 µM; in the assay with OVCAR-8 ovarian, 26 µM. Also, the TGI in the assay on RPMI-8226 leukemia was 6.71 µM; with SF-295 CNS, 24.6 µM; in the assay with SK-OV-3 ovarian, 23.6 µM; in the assay on SNB-19 CNS, 27.9 µM; in the assay on SW-620 colon, 56.1 µM; with T-47D breast it was 23 µM. The same compound registered a TGI in the assay on UACC-257 melanoma of 4.79 µM.
Take `CSC(=N)N1N=C2/C(=C/c3ccccc3)CCC[C@H]2[C@H]1c1ccccc1`: the TGI with 786-0 renal worked out at 20.3 µM; with COLO 205 colon, 2.93 µM; in the assay on HOP-92 NSCLC it was 19.5 µM; with MALME-3M melanoma it was 3.94 µM; with MOLT-4 leukemia, 12.6 µM; in the assay with NCI-H23 lung, 19.2 µM. The TGI with NCI-H522 lung was found to be 17.2 µM; in the assay with OVCAR-5 ovarian, 14.7 µM; in the assay on OVCAR-8 ovarian it was 24.8 µM; in the assay on RPMI-8226 leukemia it was 7.12 µM; in the assay with SF-295 CNS it was 16.9 µM; in the assay on SK-OV-3 ovarian it was 18.2 µM. Further, the TGI worked out at 19.3 µM in the assay with SNB-19 CNS, 15.3 µM in the assay on SW-620 colon, 6.92 µM with UACC-257 melanoma and 23.5 µM in the assay on XF 498 CNS.
For `O=c1[nH]c(=O)n(C2C(CO)OC(CO)C2O)cc1F` (configuration not stated), the TGI with 786-0 renal, in the assay on BT-549 breast, in the assay on COLO 205 colon, with DU-145 prostate, in the assay on HOP-92 NSCLC and in the assay with MALME-3M melanoma was above 100 µM throughout. Also, the TGI in the assay on MOLT-4 leukemia, with NCI-H23 lung, with NCI-H522 lung, in the assay on NCI/ADR-RES ovarian, in the assay on OVCAR-5 ovarian and in the assay on OVCAR-8 ovarian was above 100 µM each time. Moreover, the TGI in the assay on RPMI-8226 leukemia, with SF-295 CNS, in the assay with SK-OV-3 ovarian, in the assay with SNB-19 CNS, in the assay on SW-620 colon and in the assay on T-47D breast was above 100 µM each time. The TGI in the assay on UACC-257 melanoma was above 100 µM.
As for `CCOP(=O)(OCC)C(Cc1ccc(Cl)cc1)NS(=O)(=O)c1ccc(C)cc1` (configuration not stated), the TGI in the assay with 786-0 renal, in the assay with BT-549 breast, in the assay with COLO 205 colon, in the assay on DU-145 prostate, with HOP-92 NSCLC and with MALME-3M melanoma was above 100 µM in each case. Also, the TGI in the assay with MOLT-4 leukemia, with NCI-H23 lung, in the assay with NCI-H522 lung, in the assay with NCI/ADR-RES ovarian, in the assay with OVCAR-5 ovarian and in the assay with OVCAR-8 ovarian was above 100 µM in each case. The TGI in the assay with RPMI-8226 leukemia, with SF-295 CNS, with SK-OV-3 ovarian, with SNB-19 CNS, in the assay with SW-620 colon and in the assay on T-47D breast was above 100 µM in each case. Further, the TGI in the assay with UACC-257 melanoma is above 100 µM.
